In patent US5446045A, “Antiviral guanine analogs” (priority 1993, dated 1995):
≈ marks a conversion by molar mass, not a printed value.

What was measured:
DNA viruses = conditions: literature refs. 14-17; cited from earlier work
[1] = tested on: Herpes simplex virus type 1 (HSV1); assay: Inhibition of HSV1 in Vero cells (CPE assay); type: cell-based; conditions: Human alphaherpesvirus 1, CPE scored 40 to 48 h post-infection
Description: (§1) Vero and MRC-5 cells were obtained from ATCC. Human foreskin fibroblast (HFF) and Vero cells were routinely grown in minimal essential medium (MEM) with Earle salts [MEM(E)]supplemented with 10% fetal bovine serum (FBS). MRC-5 cells were grown in Basal Medium Eagle (BME) with 10% FBS and 0.035% NaHCO3. Cells were passaged according to conventional procedures.^33 Human cytomegalovirus (HCMV) strains AD169 and Towne were obtained from the ATCC. Herpes simplex virus type i and type 2 (HSV1 and HSV2) are commercially available.
(§2) Vero cells were plated at 4×10^4 cells/well in a 96-well microtitre dish in 0.1 mL of MEM(E) with 10% FBS 24 h before infection with virus. The cells were incubated at 37° C. in a 5% CO2 atmosphere. The medium was then removed and 50 μL of media containing 30 to 50 PFU of virus was allowed to adsorb to the cells for 10 minutes at 37° C. The virus containing medium was then removed and the cells were rinsed 3 times with fresh media. A final 100 μL aliquot of fresh medium, containing the various dilutions of test compounds, was then added to each well and the plates were then incubated at 37° C. Plaques were observed 24 hr post-infection and the degree of cytopathic effect scored 40 to 48 h post-infection. Acyclovir was used as a standard in all ttSV assays.
(§3) I. The same compounds used in Example 31 were also assayed for their ability to inhibit herpes simplex viruses type 1 and type 2 in acute infection assays in culture.
(§4) III. The toxic effect of these compounds on actively dividing Vero cells is reported. For all values listed as >x, x is the highest concentration tested for the respective compound.
(§5) Vero cells were plated in a 96-well microtitre dish in 0.1 ml of MEM(E) with 10% FBS 24 hours before infection with virus. The medium will then be removed and 50 ul of media containing 30 to 50 PFU of virus were allowed to adsorb to the cells for 10 minutes at 37° C. The virus-containing medium will then be removed and the cells rinsed 3 times with fresh media. A final 100 ul aliquot of fresh medium, containing the various dilutions of test compounds, were added to each well and the plates incubated at 37° C. Plaques were observed 24 hours post-infection and the degree of cytopathic effect scored 40 to 48 hours-post infection. Acyclovir was used as a standard in all HSV assays.

[2] = tested on: Herpes simplex virus type 2 (HSV2); assay: Inhibition of HSV2 in Vero cells (CPE assay); type: cell-based; conditions: Human alphaherpesvirus 2, CPE scored 40 to 48 h post-infection
Description: as §1, §2, §3, §4, §5

[3] = Cytotoxicity (inhibition of cell growth) in actively dividing Vero cells, CellTiter 96 assay; type: cell-based; conditions: african green monkey, 4 day incubation, read-out: Cytotoxicity (TC50)
Description: as §1
(§6) Stationary uninfected HFF and MRC-5 cells were evaluated for visual cytotoxicity on the scoring basis of 0 (no visual cytotoxicity at 20 fold magnification) to 4 (cell sheet nearly destroyed). Cytotoxicity as measured by inhibition of cell growth was performed in Vero cells using a CellTiter 96™ Aqueous Non-Radioactivity Cell Proliferation Assay (Promega). Cytotoxicity assays were performed using a 4 day incubation of test compound with Vero cells plated at 500 cells/well. Each assay was performed in quadruplicate. The resultant data are averaged, graphed and then used to calculate the TC50 (median toxic concentration) for the compound tested.
III. […] For all values listed as >x, x is the highest concentration tested for the respective compound.

[4] = tested on: Human cytomegalovirus (HCMV) strain AD169; assay: HCMV plaque reduction (cytopathic effect) assay, strain AD169 in MRC-5 cells; type: cell-based; conditions: Human betaherpesvirus 5, AD169/MRC5, read-out: IC50 (median inhibitory concentration)
Description: as §1
Two different plaque reduction assays were employed to determine the antiviral efficacy of the test compounds in culture. The first assay used MRC-5 cells and the AD169 strain of HCMV. The second assay used HFF cells and the Towne strain of HCMV. In experiments using MRC-5 cells the growth medium was removed from monolayer cultures in 24-well tissue culture plates. One mL of virus (AD169), diluted in test medium (Dulbecco's modified Eagle medium (DMEM), 2% FBS, 0.1% NaHCO3 and 50 ug gentamicin/mL) was used. The 24-well plates were centrifuged at 2200 rpm for 30 minutes at room temperature to allow the virus to adsorb. Medium was then aspirated from each well of the plates. The individual dilutions of each compound (prepared in test medium) were placed in each test well (0.8 mL/well, 4 wells/dilution). All plates were incubated at 37° C. in a moist atmosphere of 5% CO2. When virus plaques had formed in control cells (HCMV infected, untreated) the medium was aspirated from all wells, and the cells were stained by adding 0.3 mL of 0.2% crystal violet in 10% buffered formalin to each well. After 15 minutes, the stain was removed, cells were rinsed in tap water until the water was clear, and the plates were inverted and dried at room temperature. Plaques were counted by use of a dissecting microscope.
(§7) Ganciclovir was used as an anti-HCMV standard in all HCMV assays.
(§8) I. A series of guanine analogs containing an alkyl side chain in place of sugar moiety were evaluated for their ability to inhibit HCMV production in acute infection assays in culture and for cytotoxicity in HFF and MRC-5 cells.
(§9) III. Table 1 lists the median inhibitory concentration (IC50) for all compounds tested against HCMV strains AD169 or Towne. In addition this table lists the median toxic concentrations of these compounds (TC50) as determined by visual observation of uninfected cells treated with various concentrations of drug.
Plaque reduction assays were employed to determine the antiviral efficacy of the test compounds in culture. MRC-5 cells and the AD169 strain of FICMV were used. Growth medium was removed from monolayer cultures in 24-well tissue culture plates. One ml of virus, diluted in test medium (Dulbecco's modified Eagle medium (DMEM), 2% FBS, 0.1% NaHCO3 and 50 ug gentamicin/ml). After infection and subsequent removal of the media, individual dilutions of each compound (prepared in test medium) were placed in each test well (0.8 ml/well, 4 wells/dilution) and plates incubated at 37° C. in a moist atmosphere of 5% CO2. When virus plaques have formed in control cells (HCMV infected, untreated) the medium was aspirated from all wells, and the cells stained by adding 0.3 ml of 0.2% crystal violate in 10% buffered formalin to each well. Plaques were counted by use of a dissecting microscope. Ganciclovir was used as an anti-HCMV standard in all HCMV assays.

[5] = tested on: Human cytomegalovirus (HCMV) strain Towne; assay: HCMV plaque reduction (cytopathic effect) assay, strain Towne in HFF cells; type: cell-based; conditions: Human betaherpesvirus 5, HFF, read-out: IC50 (median inhibitory concentration)
Description: as §1
A similar set of experiments designed to monitor HCMV plaque reduction were performed with monolayer cultures of HFF and the Towne strain of HCMV using procedures similar to those reported by Turk et al.^34 Diploid HFF cells were plated 24 hr before use at approximately 1×10^5 cells/plate. These monolayer cultures were infected with 100 plaque forming units (PFU) of virus. The compounds to be assayed were dissolved in culture medium. Viral adsorption was allowed to proceed for 1 hr at which time virus containing medium was removed and replaced with medium containing the various dilutions of the test compounds. Plaques were counted using crystal violet as described above.
as §7, §8, §9

[6] = Visual cytotoxicity in stationary uninfected MRC-5 cells; type: cell-based; conditions: human, AD169/MRC5 system, visual observation of stationary uninfected MRC5 cells, read-out: TC50 (median toxic concentration)
Description: as §6, §8, §9

[7] = Visual cytotoxicity in stationary uninfected HFF cells; type: cell-based; conditions: human; Towne/HFF system; visual observation of stationary uninfected HFF cells; read-out: TC50 (median toxic concentration)
Description: as §1, §6, §8, §9

[8] = literature ref. 3-7; cited from earlier work
viruses [9] = conditions: literature ref. 3; cited from earlier work
viruses [10] = conditions: literature ref. 3; cited from earlier work; remark: listed apart in the source

Row | SMILES | activity against several DNA viruses (DNA viruses) | IC50 [1] | IC50 [2] | CC50 at 96 h [3] | IC50 [4] | IC50 [5] | CC50 [6] | CC50 [7] | immunomodulatory activity [8] | antiviral activity in the host animal (viruses [9]) | antiviral activity in vitro (viruses [10])
1 | Cc1cn([C@@H]2O[C@H](CO)[C@@H](O)[C@@H]2F)c(=O)[nH]c1=O [FMAU, 1-(2-deoxy-2-fiuoro-β-D-arabinofuranosyl)thymine] | potent agents against several DNA viruses | – | – | – | – | – | – | – | – | – | –
2 | Nc1nc2c(ncn2COCCO)c(=O)[nH]1 [acyclovir, 9-(2-hydroxyethoxymethyl)guanine, reference compound] | – | 0.2 mg/L (≈ 0.888 µM) | 0.2 mg/L (≈ 0.888 µM) | > 100 mg/L | – | – | – | – | – | – | –
3 | Nc1nc2c(ncn2COC(CO)CO)c(=O)[nH]1 [Ganciclovir, 9-(1-hydroxymethyl-2-hydroxyethoxymethyl)guanine, reference compound] | – | – | – | – | 2.1 mg/L (≈ 8.23 µM) | 2.7 mg/L (≈ 10.6 µM) | > 900 mg/L | > 100 mg/L | – | – | –
4 | C=CCCCn1c(=O)sc2c(=O)[nH]c(N)nc21 [Compound R1132-75, 5-Amino-3-(pent-4-ene-1-yl)thiazolo[4,5-d]-pyrimidine-2,7(3H, 6H)-dione] | – | 16.2 mg/L (≈ 64.4 µM) | 8.1 mg/L (≈ 32.1 µM) | 45 mg/L (≈ 178 µM) | 9.4 mg/L (≈ 37.3 µM) | 12 mg/L (≈ 47.6 µM) | 68 mg/L (≈ 270 µM) | > 100 mg/L | – | – | –
5 | CCCCCn1c(=O)sc2c(=O)[nH]c(N)nc21 [Compound R1132-36] | – | > 5.1 mg/L | > 5.1 mg/L | > 5 mg/L | 0.2 mg/L (≈ 0.786 µM) | 17 mg/L (≈ 66.8 µM) | 4 mg/L (≈ 15.7 µM) | 100 mg/L (≈ 393 µM) | – | – | –
6 | CCCCCCn1c(=O)sc2c(=O)[nH]c(N)nc21 [Compound R1132-30] | – | > 1.2 mg/L | > 1.2 mg/L | > 1 mg/L | 0.45 mg/L (≈ 1.68 µM) | – | 1.2 mg/L (≈ 4.47 µM) | – | – | – | –
7 | O=c1[nH]c(=O)n([C@@H]2O[C@H](CO)[C@@H](O)[C@@H]2F)cc1I [FIAU, 1-(2-deoxy-2-fiuoro-β-D-arabinofuranosyl)-5-iodouracil] | potent agents against several DNA viruses | – | – | – | – | – | – | – | – | – | –
8 | Nc1nc2c(sc(=O)n2[C@@H]2O[C@H](CO)[C@@H](O)[C@H]2O)c(=O)[nH]1 [7-thia-8-oxoguanosine] | – | – | – | – | – | – | – | – | demonstrated immunomodulatory activity | broad spectrum of antiviral activity | virtually inactive
9 | CCCCCC(CCCCC)n1c(=O)sc2c(=O)[nH]c(N)nc21 [Compound R1132-77, 5-Amino-3-(undecan-6-yl)thiazolo[4,5-d]-pyrimidine-2,7(3H,6H)-dione] | – | – | – | – | 12 mg/L (≈ 35.5 µM) | – | 52 mg/L (≈ 154 µM) | – | – | – | –
10 | CCCCC(CCCC)n1c(=O)sc2c(=O)[nH]c(N)nc21 [Compound R1132-73, 5-Amino-3-(nonan-5-yl)thiazolo[4,5-d]-pyrimidine-2,7(3H, 6H)-dione] | – | > 2.2 mg/L | > 2.2 mg/L | > 2.5 mg/L | 9.4 mg/L (≈ 30.3 µM) | 4.7 mg/L (≈ 15.1 µM) | 178 mg/L (≈ 573 µM) | 11.1 mg/L (≈ 35.8 µM) | – | – | –
11 | CCC(CC)n1c(=O)sc2c(=O)[nH]c(N)nc21 [Compound R1132-76, 5-Amino-3-(pentan-3-yl)thiazolo[4,5-d]-pyrimidine-2,7(3H, 6 H)-dione] | – | > 21.7 mg/L | 21.7 mg/L (≈ 85.3 µM) | 56 mg/L (≈ 220 µM) | > 100 mg/L | – | 32 mg/L (≈ 126 µM) | – | – | – | –
12 | CC(C)=CCn1c(=O)sc2c(=O)[nH]c(N)nc21 [Compound R1132-72, 5-Amino-3-(3-methylbut-2-ene-1-yl)thiazo lo[4,5-d]-pyrimidine-2,7(3H,6H)-dione] | – | 5.6 mg/L (≈ 22.2 µM) | 5.6 mg/L (≈ 22.2 µM) | 20 mg/L (≈ 79.3 µM) | 4 mg/L (≈ 15.9 µM) | 1.7 mg/L (≈ 6.74 µM) | > 100 mg/L | 100 mg/L (≈ 396 µM) | – | – | –
13 | CCC=CCn1c(=O)sc2c(=O)[nH]c(N)nc21 [Compound R1132-74, 5-Amino-3-(pent-2-ene-1-yl)thiazolo[4,5-d]-pyrimidine-2,7(3H,6H)-dione] | – | 0.53 mg/L (≈ 2.1 µM) | < 0.27 mg/L | > 20 mg/L | < 1 mg/L | 0.14 mg/L (≈ 0.555 µM) | > 100 mg/L | > 100 mg/L | – | – | –
